Laboratory results: patent publication US10071158B2, “Combination of the application of antibodies for immunostimulation together with glucocorticoids” (Lindis Biotech GmbH, priority 2005, dated 2018)
Entries after “also recorded” stand apart in the source; their conditions may differ.

How the values were obtained:
[1] = tested on: mononuclear cells of the peripheral blood (PBMC); experiment: Release of TNF-α by PBMC after stimulation with anti-EpCAM x anti-CD3 antibody without/with HCT8 tumour cells (ELISA); assay type: cell-based, human; details: without HCT8; dexamethasone 0.1 μg/ml (FIG. 2C)
Text: FIG. 2A-2C represents in diagrams the results of the release of tumour necrosis factor α (TNF-α) after stimulation with trifunctional bispecific antibody of the specificity anti-EpCAM x anti-CD3 without and in the presence of EpCAM-positive tumour cells.
This stimulation without target cells corresponds, in turn, as already stated with respect to FIG. 1A, to the systemic, non-specific release of cytokine, which arises independently of the antibody/antigen interaction. This systemic release of TNF-α is effected by the totality of the PBMC population. […]
FIG. 2B represents, in a diagram similar to FIG. 1B, the release of TNF-α from PBMC after antibody stimulation with contact with EpCAM-positive tumour cells, the TNF-α concentration in pg/ml being plotted, here too, on the y-axis. […] In the case of stimulation with contact with EpCAM-positive tumour cells, in comparison with the stimulation without contact with target cells, in connection with the release of TNF-α absolutely higher values are also measured, which, however, as already stated above with respect to the release of IL-6 in connection with FIG. 1B, has its origin in the specific immunological action at the site of the antibody/antigen interaction. […]
(§1) FIGS. 14 to 16 show graphic representations of the results of the release of various cytokines in tumour patients by PBMC. […] The release of the same cytokines was measured likewise. […]

[2] = tested on: mononuclear cells of the peripheral blood (PBMC); experiment: Release of IL-6 by PBMC after stimulation with anti-EpCAM x anti-CD3 antibody without/with HCT8 tumour cells (ELISA); assay type: cell-based, human; details: antibody-stimulated PBMC with HCT8; dexamethasone 0.01 μg/ml to 10 μg/ml (FIG. 1B)
Protocol: FIG. 1A represents the release of IL-6, the IL-6 concentration in pg/ml being plotted on the y-axis. On the x-axis the respective stimulation of the PBMC has been plotted, with unstimulated PBMC serving by way of control (bar “PBMC”). In this connection, E signifies in each instance the stimulation with 100 μg/ml trifunctional bispecific antibody with the specificity anti-EpCAM x anti-CD3. […] In the experiment according to FIG. 1A the release of IL-6 from PBMC is investigated after stimulation without contact with EpCAM-positive tumour cells (=target cells). The stimulation without EpCAM-positive tumour cells corresponds to the non-specific release of cytokine, which is independent of the antigen binding. Release is accordingly effected systemically by the totality of the PBMC.
This procedure of stimulation with EpCAM-positive tumour cells corresponds to the situation of the release of IL-6 by the PBMC at the site of antigen binding. […] In the clinical use of the immunostimulating antibody together with the glucocorticoid the high quantity of IL-6 is released only by a few PBMC that are directly involved in the specific action. […]
as §1

[3] = after i.v. injection; cited from earlier work
HCT8 tumour cells [4] = experiment: Cytotoxicity assay with fluorescence-marked HCT8 tumour cells, PBMC of healthy test subjects and tumour patients (FIG. 10); assay type: cell-based, human
Protocol: FIGS. 10A to 10C represent the mean values of the measurements carried out in respect of three healthy test subjects, whereas FIG. 10D represents the mean values of the measurements carried out in respect of six patients with gastrointestinal carcinoma. In the experiments a stimulation was effected with trifunctional bispecific antibodies with the specificity anti-EpCAM x anti-CD3 at various concentrations amounting to 10 ng/ml, 100 ng/ml and 1000 ng/ml. The respective concentration of the antibody that has been used is specified in FIGS. 10A to 10D. The concentration of the PBMC amounted to 10^6 cells/ml, that of the HCT8 cells amounted to 5×10^4 cells/ml. […] On the y-axis the percentage cytotoxicity has been plotted; on the x-axis the respective experimental assay of the PBMC has been plotted, with unstimulated PBMC serving by way of control (PBMC).

[5] = tested on: mononuclear cells of the peripheral blood (PBMC); experiment: Release of IFN-γ by PBMC after stimulation with anti-EpCAM x anti-CD3 antibody without/with HCT8 tumour cells (ELISA); assay type: cell-based, human; details: dexamethasone 0.1 μg/ml
Protocol: Mononuclear cells were extracted from the peripheral blood of a healthy volunteer by means of centrifugation over Ficoll (density 1.068 g/cm^3). To this end, venous heparinised blood was stratified over Ficoll and centrifuged at 2000 rpm for 20 min. The cell layer located above the Ficoll was pipetted off after centrifugation and was washed with PBS.
For the purpose of stimulation, the PBMC were used at a concentration of 1×10^6/ml. The stimulation of the PBMC was effected with an intact trifunctional bispecific antibody either of the specificity anti-EpCAM x anti-CD3 at a concentration of 100 μg/ml or of the specificity anti-HER2/neu x anti-CD3 at a concentration of 1 mg/ml. The stimulation was carried out for 24 h by incubation at 37 ° C. The stimulation was effected in each instance without tumour cells or in the presence of 5×10^4 HCT8 tumour cells (relative to ATCC; EpCAM-positive) per ml.
After the stimulation the determination of the concentrations of the cytokines IL-6, IL-10, TNF-α and IFN-γ was undertaken in the supernatant on plates with 24 recesses in each instance by means of an ELISA. In each instance duplicate measurements were carried out. The ELISAs were undertaken by means of standardised kits produced by R&D Systems, in accordance with the manufacturer's instructions.

HCT8 tumour cells [6] = experiment: Two-hour cytotoxicity assay with fluorescence-marked (BCECF-AM) HCT8 tumour cells, stimulated PBMC (FIG. 5); assay type: cell-based, human; parameters: effect on specific percentage cytotoxicity of stimulated PBMC: dose or concentration left out as unconfirmed
Protocol: FIG. 5A-5D represents in diagrams the results of the measurement of the specific percentage cytotoxicity, which was determined in a two-hour cytotoxicity assay with fluorescence-marked HCT8 tumour cells. In FIGS. 5A to 5D the specific percentage cytotoxicity against HCT8 has been plotted as a function of the ratio of effector cells to target cells (E/T), the cytotoxicity test having been carried out in each instance in the case of a ratio of the effector cells to the target cells of 40:1, 20:1, 10:1, 5:1 and 2.5:1.
With the aid of a cytotoxicity test the influence of glucocorticoid on the T-cell toxicity was investigated. The extraction of the PBMC and the stimulation thereof were carried out in accordance with the above Example 1.
The measurement of cytotoxicity was undertaken with the aid of a fluorescence test using the dyestuff BCECF-AM. The measurement was undertaken by means of 2 h release technology corresponding to the procedure in Kolber et al. (1988) J. Immunol. Meth. 108: 255-264.

C[C@@H]1C[C@H]2[C@@H]3CCC4=CC(=O)C=C[C@]4(C)[C@@]3(F)[C@@H](O)C[C@]2(C)[C@@]1(O)C(=O)CO [dexamethasone]
non-specific secretion of TNF-α, % of value with antibody without dexamethasone [1]: ~20%
release of IL-6 in the supernatant [2]: above 5000 pg/ml
maximum plasma concentrations attained [3]: within a few minutes
inhibition of the specific percentage cytotoxicity (HCT8 tumour cells [4]; antibody 10 ng/ml, no contact with HCT8, dexamethasone, healthy test subjects): about 5 percentage points
inhibition of the specific percentage cytotoxicity (HCT8 tumour cells [4]; antibody 10 ng/ml, with HCT8, dexamethasone up to 1.0, healthy test subjects (FIG. 10A)): approximately 15 percentage points
specific percentage cytotoxicity (HCT8 tumour cells [4]; antibody 10 ng/ml, with HCT8, with dexamethasone, healthy test subjects): ~41%
inhibition of the cytotoxicity (HCT8 tumour cells [4]; antibody 100 ng/ml, dexamethasone, patients with gastrointestinal tumours (FIG. 10D)): approximately 27 percentage points
inhibition of the specific percentage cytotoxicity (HCT8 tumour cells [4]; antibody 100 ng/ml, with HCT8, dexamethasone up to 1.0, healthy test subjects (FIG. 10B)): about 30 percentage points
specific percentage cytotoxicity (HCT8 tumour cells [4]; antibody 100 ng/ml, with HCT8, with dexamethasone, healthy test subjects): ~50%
cytotoxicity (HCT8 tumour cells [4]; antibody 100 ng/ml, with dexamethasone, patients with gastrointestinal tumours): ~51%
inhibition of the cytotoxicity (HCT8 tumour cells [4]; antibody 100 ng/ml, without contact with HCT8, dexamethasone, healthy test subjects): approximately 10 percentage points
inhibition of the specific percentage cytotoxicity (HCT8 tumour cells [4]; antibody 1000 ng/ml, with HCT8, dexamethasone up to 1.0, healthy test subjects (FIG. 10C)): about 20 percentage points
specific percentage cytotoxicity (HCT8 tumour cells [4]; antibody 1000 ng/ml, with HCT8, with dexamethasone, healthy test subjects): ~67%
inhibition of the cytotoxicity (HCT8 tumour cells [4]; antibody 1000 ng/ml, without contact with HCT8, dexamethasone, healthy test subjects): about 2 percentage points
release of IFN-γ [5]: under 3000 pg/ml
effect on the cytotoxicity of stimulated PBMC (HCT8 tumour cells [6]; dexamethasone 0.01 μg/ml): no effect
percentage cytotoxicity (HCT8 tumour cells [6]; dexamethasone 0.1 μg/ml to 10 μg/ml, stimulation in the presence of HCT8, E/T 40:1): maintained constant at a high level
inhibition of the specific percentage cytotoxicity (HCT8 tumour cells [6]; dexamethasone 0.1 μg/ml, with or without HCT8 during stimulation (FIG. 5B)): about 50 percentage points
inhibition of the percentage specific cytotoxicity (HCT8 tumour cells [6]; dexamethasone 1 μg/ml, E/T 20:1, stimulation in the absence of HCT8): distinctly greater inhibition
inhibition of the specific percentage cytotoxicity compared with 0.1 μg/ml (HCT8 tumour cells [6]; dexamethasone 1 μg/ml, stimulation in the presence of HCT8 (FIG. 5C)): roughly the same level
cytotoxicity values in relation to lower dexamethasone concentrations (HCT8 tumour cells [6]; dexamethasone 10 μg/ml, stimulation in the absence of HCT8): declined further
percentage cytotoxicity (HCT8 tumour cells [6]; dexamethasone 10 μg/ml, stimulation in the presence of HCT8, E/T 20:1 (FIG. 5D)): 30%
specific percentage cytotoxicity (HCT8 tumour cells [6]; dexamethasone 10 μg/ml, stimulation in the presence of HCT8, E/T twice as large (40:1)): about 60%
effect on specific percentage cytotoxicity of stimulated PBMC (HCT8 tumour cells [6]; dexamethasone (FIG. 5A)): no effect; also recorded: no inhibition
effect on cytotoxicity (HCT8 tumour cells [6]; dexamethasone starting from 0.1 μg/ml, independent of HCT8 during stimulation): significant reducing; also recorded: distinct reducing
percentage cytotoxicity as a function of dexamethasone concentration (HCT8 tumour cells [6]; stimulation of PBMC without HCT8): declines further
